Earlier results in patent US9969730B2, “Stable SNS-595 compositions and methods of preparation” (Sunesis Pharmaceuticals, Inc., priority 2009, dated 2018).

Key:
[1] = system: various cancer cell lines
xenografts = conditions: in vivo
[2] = system: acute myeloid leukemia and ovarian cancer; conditions: human cancer patients

## CN[C@H]1CN(c2ccc3c(=O)c(C(=O)O)cn(-c4nccs4)c3n2)C[C@@H]1OC [SNS-595, (+)-1,4-dihydro-7-[(3S,4S)-3-methoxy-4-methylamino-1-pyrrolidinyl]-4-oxo-1-(2-thiazolyl)-1,8-naphthyridine-3-carboxylic acid]
[1]
  preclinical activity against various cancer cell lines: preclinical activity
xenografts
  preclinical activity against xenografts: preclinical activity
[2]
  clinical activity in the treatment of acute myeloid leukemia and ovarian cancer: clinical activity
